Laboratory results from patent publication EP3290412A1, “HIV-1 NUCLEOCAPSID INHIBITORS” (Università degli Studi di Siena, priority 2016, dated 2018).
Read-outs that look alike come from different tables or passages of the source.

Experiments:
[1] = tested on: HIV-1 reference strain NL4-3; experiment: MonoCycle assay (TZM-bl cells); assay type: cell-based
Outline: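 TZM-bl cells (20,000/well) were infected with NL4-3 in the presence of five-fold serial inhibitor dilutions. After 48 h, cells were lysed and luciferase luminescence (RLU) was counted. IC50 was derived from the RLU data.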

[2] = target: T1, full length (1-55) HIV-1 NCp7 (Human immunodeficiency virus type 1 group M subtype B, UniProt P12493); experiment: Electromobility Shift Assay (EMSA), competition for ssDNA binding; conditions: NCp7 300 nM, M13mp18 ssDNA; positive = >25% inhibition at 100µM
T1 construct: recombinant full length (1-55) HIV-1 NCp7 proteins; made in house
Outline: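 Recombinant NL4-3 NCp7 (300 nM in the pre-mix) was combined with compound in 20 mM Tris-HCl pH 7.4, 2 mM MgCl2, 100 mM NaCl, 1 mM DTT, then M13mp18 ssDNA was added for 25 min at 37 °C. Complexes were run on 1% agarose/0.5x TBE and stained with SybrGold. IC50 is the concentration at which bound ssDNA migrated 50% of the bound–unbound distance (triplicate).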

[3] = tested on: Peripheral blood mononuclear cells (PBMC); assay type: cell-based; conditions: human, 7 days
Outline: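 Healthy-donor PBMC stimulated 2 days with 5 µg/mL PHA, then seeded at 1x10^5 cells/well in medium with 20 IU/mL IL-2 and exposed to compound for 7 days. Viability measured by MTS (4 h, OD 490 nm). TD50 interpolated from dose versus percent mortality relative to untreated cells.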

HeLa cells = experiment: HeLa Proliferation assay (CellTiter Glo); assay type: cell-based; conditions: 72 hours
Outline: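 HeLa cells in phenol red-free DMEM + 10% FBS plated at 2000 cells/well, recovered 4 h, then exposed to compounds for 72 h at 37 °C, 5% CO2. Viability read by CellTiter Glo luminescence.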

[4] = Human immunodeficiency virus 1, NL43, TZM-bl cells, NL4-3, 48 hours, read-out: Mono Cycle IC50
[5] = Human immunodeficiency virus 1, NL43, TZM-bl, 48 h, read-out: Mono Cycle IC50 nM

SMILES | IC50 [1, 4] | EMSA screening results [2] | Proliferation assay PBMC TD50 [3] | Proliferation assay HELA TD50 (HeLa cells) | IC50 [1, 5] | TD50 [3]
C[C@@H](NC(=O)c1nc(-c2cccc(C(F)(F)F)n2)nc(O)c1O)C1CCCCC1 [Compound 44, (R)-N-(1-cyclohexylethyl)-5,6-dihydroxy-2-(6-(trifluoromethyl)pyridin-2-yl)pyrimidine-4-carboxamide] | > 50000 nM | Positive (A compound showing >25% inhibition when tested at 100µM concentration is considered as "positive") | 21.55 µM | >50 µM | – | –
C[C@@H](NC(=O)c1nc(-c2ccc(N)cn2)nc(O)c1O)C1CCCCC1 [Compound 20, (R)-2-(5-aminopyridin-2-yl)-N-(1-cyclohexylethyl)-5,6-dihydroxypyrimidine-4-carboxamide] | – | Positive (A compound showing >25% inhibition when tested at 100µM concentration is considered as "positive") | 1.65 µM | 0.6864 µM | 2110 nM | –
C[C@@H](NC(=O)c1nc(-c2ccccn2)nc(O)c1O)C1CCCCC1 [Compound 5, (R)-N-(1-cyclohexylethyl)-5,6-dihydroxy-2-(pyridin-2-yl)pyrimidine-4-carboxamide] | – | Positive (A compound showing >25% inhibition when tested at 100µM concentration is considered as "positive") | 3 µM | 3.1844 µM | 2490 nM | –
C[C@@H](NC(=O)c1nc(-c2ncccc2C(F)(F)F)nc(O)c1O)C1CCCCC1 [Compound 30, (R)-N-(1-cyclohexylethyl)-5,6-dihydroxy-2-(3-(trifluoromethyl)pyridin-2-yl)pyrimidine-4-carboxamide] | > 50000 nM | Positive (A compound showing >25% inhibition when tested at 100µM concentration is considered as "positive") | 5.4 µM | >50 µM | – | –
O=C(OCC1CCCCC1)c1nc(-c2ccccn2)nc(O)c1O [Compound 2, cyclohexylmethyl 5,6-dihydroxy-2-(pyridin-2-yl)pyrimidine-4-carboxylate] | – | Negative | 6 µM | >50 µM | > 50000 nM | –
Cc1ccnc(-c2nc(O)c(O)c(C(=O)N[C@H](C)C3CCCCC3)n2)c1 [Compound 19, (R)-N-(1-cyclohexylethyl)-5,6-dihydroxy-2-(4-methylpyridin-2-yl)pyrimidine-4-carboxamide] | – | Positive (A compound showing >25% inhibition when tested at 100µM concentration is considered as "positive") | 3.075 µM | 2.7357 µM | 15300 nM | –
COc1ccnc(-c2nc(O)c(O)c(C(=O)N[C@H](C)C3CCCCC3)n2)c1 [Compound 28, (R)-N-(1-cyclohexylethyl)-5,6-dihydroxy-2-(4-methoxypyridin-2-yl)pyrimidine-4-carboxamide] | – | Positive (A compound showing >25% inhibition when tested at 100µM concentration is considered as "positive") | 2.7 µM | 2.8609 µM | 34300 nM | 2.7 µM
COc1cc(-c2nc(O)c(O)c(C(=O)N[C@H](C)C3CCCCC3)n2)nc2ccccc12 [Compound 68, N-[(1R)-1-cyclohexylethyl]-2-(4-methoxyquinolin-2-yl)-5,6-bis(oxidanyl)pyrimidine-4-carboxamide] | 44300 nM | Positive (A compound showing >25% inhibition when tested at 100µM concentration is considered as "positive") | 2.66 µM | 5.7007 µM | – | –
C[C@@H](NC(=O)c1nc(-c2ccc(C(F)(F)F)cn2)nc(O)c1O)C1CCCCC1 [Compound 36, (R)-N-(1-cyclohexylethyl)-5,6-dihydroxy-2-(5-(trifluoromethyl)pyridin-2-yl)pyrimidine-4-carboxamide] | – | Positive (A compound showing >25% inhibition when tested at 100µM concentration is considered as "positive") | 0.465 µM | 4.7177 µM | 45400 nM | –
Cc1cccnc1-c1nc(O)c(O)c(C(=O)NCC2CCCCC2)n1 [Compound 11, N-(cyclohexylmethyl)-5,6-dihydroxy-2-(3-methylpyridin-2-yl)pyrimidine-4-carboxamide] | – | Negative | 8.7 µM | 8.2839 µM | 50000 nM | –
COc1ccc(-c2nc(O)c(O)c(C(=O)N[C@H](C)C3CCCCC3)n2)nc1 [Compound 32, (R)-N-(1-cyclohexylethyl)-5,6-dihydroxy-2-(5-methoxypyridin-2-yl)pyrimidine-4-carboxamide] | – | Positive (A compound showing >25% inhibition when tested at 100µM concentration is considered as "positive") | 3 µM | 0.9356 µM | 8260 nM | –
C[C@@H](NC(=O)c1nc(-c2nccc3ccccc23)nc(O)c1O)C1CCCCC1 [Compound 31, (R)-N-(1-cyclohexylethyl)-5,6-dihydroxy-2-(isoquinolin-1-yl)pyrimidine-4-carboxamide] | – | Positive (A compound showing >25% inhibition when tested at 100µM concentration is considered as "positive") | 5 µM | 2.0709 µM | > 50000 nM | 5 µM
Cc1cccnc1-c1nc(O)c(O)c(C(=O)OCC2CCCCC2)n1 [Compound 10, cyclohexylmethyl 5,6-dihydroxy-2-(3-methylpyridin-2-yl)pyrimidine-4-carboxylate] | – | Negative | 8.1 µM | >50 µM | > 50000 nM | –
